Patent US8802678B2, “Carbonylated (aza) cyclohexanes as dopamine D3 receptor ligands” (Bioprojet, priority 2006, dated 2014)

| SMILES | melting point |
| --- | --- |
| O=C(N[C@H]1CC[C@H](CCN2CCN(c3ccc(Cl)cc3F)CC2)CC1)C1=CCCC1 [Example 517, Cyclopent-1-enecarboxylic acid (4-{2-[4-(4-chloro-2-fluorophenyl)piperazin-1-yl]ethyl}cyclohexyl) amide] | 216 °C |
| Cc1ccc(N2CCN(CC[C@H]3CC[C@H](NC(=O)C4=CCCC4)CC3)CC2)c(F)c1 [Example 518, Cyclopent-1-enecarboxylic acid (4-{2-[4-(2-fluoro-4-methylphenyl)piperazin-1-yl]ethyl}cyclohexyl) amide] | 202 °C |
| N#CCC(=O)N[C@H]1CC[C@H](CCN2CCN(c3ccc(Cl)c(Cl)c3F)CC2)CC1 [Example 519, 2-Cyano-N-(4-{2-[4-(3,4-dichloro-2-fluorophenyl)piperazin-1-yl]ethyl}cyclohexyl)acetamide] | 237 °C |
| N#CCCCC(=O)N[C@H]1CC[C@H](CCN2CCN(c3ccc(Cl)c(Cl)c3F)CC2)CC1 [Example 520, 4-Cyano-N-(4-{2-[4-(3,4-dichloro-2-fluorophenyl)piperazin-1-yl]ethyl}cyclohexyl)butanamide] | 199 °C |
| CCOCC(=O)N[C@H]1CC[C@H](CCN2CCN(c3cc(Cl)ccc3Cl)CC2)CC1 [Example 521, N-(4-{2-[4-(2,5-Dichlorophenyl)-piperazin-1-yl]ethyl}cyclohexyl)-2-ethoxyacetamide] | 128 °C |
| N#CCCCC(=O)N[C@H]1CC[C@H](CCN2CCN(c3cccc(F)c3C#N)CC2)CC1 [Example 522, 4-Cyano-N-(4-{2-[4-(2-cyano-3-fluorophenyl)piperazin-1-yl]ethyl}cyclohexyl)butanamide] | 175 °C |
| O=C(N[C@H]1CC[C@H](CCN2CCN(c3cc(F)c(F)cc3F)CC2)CC1)C1=CCCC1 [Example 523, Cyclopent-1-enecarboxylic acid (4-{2-[4-(2,4,5-trifluorophenyl)piperazin-1-yl]ethyl}cyclohexyl) amide] | 199 °C |
| N#Cc1cccc(N2CCN(CC[C@H]3CC[C@H](NC(=O)C4=COCC4)CC3)CC2)c1 [Example 524, 4,5-Dihydrofuran-3-carboxylic acid (4-{2-[4-(3-cyanophenyl)piperazin-1-yl]ethyl}cyclohexyl) amide] | 165 °C |
| O=C(N[C@H]1CC[C@H](CCN2CCN(c3cc(Cl)ccc3F)CC2)CC1)C1=CCCC1 [Example 525, Cyclopent-1-enecarboxylic acid (4-{2-[4-(5-chloro-2-fluorophenyl)piperazin-1-yl]ethyl}cyclohexyl) amide] | 198 °C |
| N#CCCCC(=O)N[C@H]1CC[C@H](CCN2CCN(c3cccc(-c4ncco4)c3)CC2)CC1 [Example 526, 4-Cyano-N-(4-{2-[4-(3-oxazol-2-ylphenyl)piperazin-1-yl]ethyl}cyclohexyl)butanamide] | 192 °C |
| O=C(N[C@H]1CC[C@H](CCN2CCN(c3ccc(F)cc3F)CC2)CC1)C1=COCC1 [Example 527, 4,5-Dihydrofuran-3-carboxylic acid (4-{2-[4-(2,4-difluorophenyl)piperazin-1-yl]ethyl}cyclohexyl) amide] | 192 °C |
| N#CCC(=O)N[C@H]1CC[C@H](CCN2CCN(c3cc(Cl)cc(C(F)(F)F)c3)CC2)CC1 [Example 528, N-(4-{2-[4-(3-Chloro-5-trifluoromethylphenyl)piperazin-1-yl]ethyl}cyclohexyl)-2-cyanoacetamide] | 172 °C |
| N#CCCCC(=O)N[C@H]1CC[C@H](CCN2CCN(c3cc(Cl)cc(C(F)(F)F)c3)CC2)CC1 [Example 529, N-(4-{2-[4-(3-Chloro-5-trifluoromethylphenyl)piperazin-1-yl]ethyl}cyclohexyl)-4-cyanobutanamide] | 152 °C |
| N#CCC(=O)N[C@H]1CC[C@H](CCN2CCN(c3cccc(-c4ncco4)c3)CC2)CC1 [Example 530, 2-Cyano-N-(4-{2-[4-(3-oxazol-2-ylphenyl)piperazin-1-yl]ethyl}cyclohexyl)acetamide] | 185 °C |
| O=C(N[C@H]1CC[C@H](CCN2CCN(c3cccc(-c4ncco4)c3)CC2)CC1)C1=COCC1 [Example 532, 4,5-Dihydrofuran-3-carboxylic acid(4-{2-[4-(3-oxazol-2-ylphenyl)piperazin-1-yl]ethyl}cyclohexyl) amide] | 202 °C |
| CCOC(=O)CN1CCC(CCN2CCN(c3cccc(C)c3C)CC2)CC1 [Example 533, (4-{2-[4-(2,3-Dimethylphenyl)piperazin-1-yl]ethyl}piperidin-1-yl)acetic acid ethyl ester] | 82 °C |
| Cc1ccc(F)c(N2CCN(CC[C@H]3CC[C@H](NC(=O)C4=CCCC4)CC3)CC2)c1 [Example 534, Cyclopent-1-enecarboxylic acid (4-{2-[4-(2-fluoro-5-methylphenyl)piperazin-1-yl]ethyl}cyclohexyl) amide] | 174 °C |
| CCOc1cccc(N2CCN(CC[C@H]3CC[C@H](NC(=O)CCCC#N)CC3)CC2)c1 [Example 535, 4-Cyano-N-(4-{2-[4-(3-ethoxyphenyl)piperazin-1-yl]ethyl}cyclohexyl)butanamide] | 121 °C |
| Cc1ccc(N2CCN(CC[C@H]3CC[C@H](NC(=O)C4=CCCC4)CC3)CC2)cc1F [Example 537, Cyclopent-1-enecarboxylic acid (4-{2-[4-(3-fluoro-4-methylphenyl)piperazin-1-yl]ethyl}cyclohexyl) amide] | 220 °C |

| SMILES | melting point |
| --- | --- |
| Cc1ccc(N2CCN(CC[C@H]3CC[C@H](NC(=O)CCCC#N)CC3)CC2)cc1F [Example 538, 4-Cyano-N-(4-{2-[4-(3-fluoro-4-methylphenyl)piperazin-1-yl]ethyl}cyclohexyl)butanamide] | 180 °C |
| CCOCC(=O)N[C@H]1CC[C@H](CCN2CCN(c3ccc(C)c(F)c3)CC2)CC1 [Example 539, 2-Ethoxy-N-(4-{2-[4-(3-fluoro-4-methylphenyl)piperazin-1-yl]ethyl}cyclohexyl)acetamide] | 124 °C |
| CCC(O)c1cccc(N2CCN(CC[C@H]3CC[C@H](NC(=O)CCCC#N)CC3)CC2)c1 (stereo partly shown) [Example 540, 4-cyano-N-[4-(2-{4-[3-(1-hydroxypropyl)phenyl]piperazin-1-yl}ethyl)cyclohexyl]butanamide] | 151 °C |
| COCC(=O)N[C@H]1CC[C@H](CCN2CCN(c3cc(F)c(F)c(F)c3)CC2)CC1 [Example 542, 2-Methoxy-N-(4-{2-[4-(3,4,5-trifluorophenyl)piperazin-1-yl]ethyl}cyclohexyl)acetamide] | 153 °C |
| O=C(N[C@H]1CC[C@H](CCN2CCN(c3ccc(F)c(F)c3F)CC2)CC1)C1=CCCC1 [Example 543] | 213 °C |
| N#CCCCC(=O)N[C@H]1CC[C@H](CCN2CCN(c3ccc(C(F)(F)F)cc3)CC2)CC1 [Example 544, 4-Cyano-N-(4-{2-[4-(4-trifluoromethylphenyl)piperazin-1-yl]ethyl}cyclohexyl)butanamide] | 207 °C |
| COCCCC(=O)N[C@H]1CC[C@H](CCN2CCN(c3cccc(Cl)c3C)CC2)CC1 [Example 547, N-(4-{2-[4-(3-Chloro-2-methylphenyl)piperazin-1-yl]ethyl}cyclohexyl)-4-methoxybutanamide] | 188 °C |
| N#CCC(=O)N[C@H]1CC[C@H](CCN2CCN(c3ccc(F)c(Cl)c3F)CC2)CC1 [Example 551, N-(4-{2-[4-(3-Chloro-2,4-difluorophenyl)piperazin-1-yl]ethyl}cyclohexyl)-2-cyanoacetamide] | 198 °C |
| N#CCCCC(=O)N[C@H]1CC[C@H](CCN2CCN(c3ccc(F)c(Cl)c3F)CC2)CC1 [Example 552, N-(4-{2-[4-(3-Chloro-2,4-difluorophenyl)piperazin-1-yl]ethyl}cyclohexyl)-4-cyanobutanamide] | 192 °C |
| Cc1ccccc1N1CCN(CC[C@H]2CC[C@H](NC(=O)C3=CCCC3)CC2)CC1 [Example 556, Cyclopent-1-enecarboxylic acid {4-[2-(4-o-tolylpiperazin-1-yl)ethyl]cyclohexyl} amide] | 181 °C |
| CCOCC(=O)N[C@H]1CC[C@H](CCN2CCN(c3ccccc3C)CC2)CC1 [Example 557] | 101 °C |
| N#CCCCC(=O)N[C@H]1CC[C@H](CCN2CCc3cc(C#N)ccc3C2)CC1 [Example 558, 4-Cyano-N-{4-[2-(6-cyano-3,4-dihydro-1H-isoquinolin-2-yl)ethyl]cyclohexyl}butanamide] | 177 °C |
| N#CCC(=O)N[C@H]1CC[C@H](CCN2CCc3cc(C#N)ccc3C2)CC1 [Example 559, 2-Cyano-N-{4-[2-(6-cyano-3,4-dihydro-1H-isoquinolin-2-yl)ethyl]cyclohexyl}acetamide] | 206 °C |
| CCc1cccc(N2CCN(CC[C@H]3CC[C@H](NC(=O)CCCOC)CC3)CC2)c1 [Example 560, N-(4-{2-[4-(3-Ethylphenyl)piperazin-1-yl]ethyl}cyclohexyl)-4-methoxybutanamide] | 130 °C |
| CCc1cccc(N2CCN(CC[C@H]3CC[C@H](NC(=O)C4=CCCCO4)CC3)CC2)c1 [Example 561, 5,6-Dihydro-4H-pyran-2-carboxylic acid (4-{2-[4-(3-ethylphenyl)piperazin-1-yl]ethyl}cyclohexyl) amide] | 135 °C |
| O=C(N[C@H]1CC[C@H](CCN2CCN(c3cccc(C(F)(F)F)c3)CC2)CC1)C1=CCCCO1 [Example 562, 5,6-Dihydro-4H-pyran-2-carboxylic acid (4-{2-[4-(3-trifluoromethylphenyl)piperazin-1-yl]ethyl}cyclohexyl) amide] | 142 °C |
| CCOCC(=O)N[C@H]1CC[C@H](CCN2CCN(c3cccc(CC)c3)CC2)CC1 [Example 563, 2-Ethoxy-N-(4-{2-[4-(3-ethylphenyl)piperazin-1-yl]ethyl}cyclohexyl)acetamide] | 100 °C |
| O=C(N[C@H]1CC[C@H](CCN2CCN(c3cccc(C(F)(F)F)c3)CC2)CC1)C1=COCC1 [Example 564, 4,5-Dihydrofuran-3-carboxylic acid (4-{2-[4-(3-trifluoromethylphenyl)piperazin-1-yl]ethyl}cyclohexyl) amide] | 175 °C |
